Assay results published in patent US20080004302A1, “Novel Compounds” (ASTRAZENECA AB, priority 2006, published 2008).
Like-named read-outs stand apart in the source and are kept apart here.

Assays:
[1] = tested on: Erk phosphorylation; assay: Growth factor (bFGF) stimulated Erk phosphorylation in NIH 3T3 cells; settings: Mus musculus, NIH3T3, NIH 3T3 cells, 3 ng/ml bFGF
From the text: These and other assays were used to evaluate the ability of a test compound to inhibit growth factor stimulated cellular signalling in mammalian cell lines. This was achieved by measuring the amount of receptor tyrosine kinase regulated Erk phosphorylation within a cell following compound treatment.
NIH 3T3 (ECACC, 93061524) cells were routinely passaged in DMEM (Gibco BRL, 41966) plus 10% foetal calf serum (FCS), 1% L-glutamine (Gibco BRL, 25030) to a confluence not greater than 80%. To undertake the assay, NIH 3T3's were seeded at 1×10^4 cells/well in DMEM plus 10% foetal calf serum, 1% L-glutamine in 96 well plates (Costar, 3904) and incubated at 37° C. (+5% CO2) in a humidified incubator. Once the cells had fully adhered (typically following 4-5 hours incubation) the media was removed from each well and the cells gently washed with 100μl warm serum free media. 90μl of serum free DMEM plus 1% L-glutamine was then added to each well and the plates were returned to a humidified 37° C. (+5% CO2) incubator. The following day, the plates were dosed with 10[l compound (diluted from 10 mM stock in DMSO using serum free DMEM) and the plates were returned to a humidified 37° C. (+5% CO2) incubator for one hour. NIH 3T3 cells were then stimulated with a final concentration of 3 ng/ml bFGF (Sigma, F029 1) for 20 minutes at 37° C. Following stimulation the cells were fixed by adding formaldehyde (4% v/v final concentration) and incubating at room temperature for 20 minutes. The fixative solution was then removed and the wells were washed twice with 100μl phosphate buffered saline (PBS/A) before permeabilising the cells by the addition of 50 μl/well 0.1% triton/PBS/A for 10 minutes at room temperature. The permeabilisation solution was then removed and the cells washed twice more with 100 μl/well PBS/A before the addition of 50 μl/well anti-phospho p44/42 (Cell Signalling Technology, 9106), diluted 1/500 with PBS/A plus 10% FCS. The anti-phospho p44/42 antibody recognises Erk phosphorylated at threonine 202 and tyrosine 204. […] Finally, the plates were washed three times with 100 μl/well PBS/A, leaving the final wash in the wells before sealing the plates. The plates were read at 350 nm and 488 nm using an Arrayscan (Cellomics).

[2] = target: T1, FGFR1 IIIc (Homo sapiens, UniProt P11362); assay: Cell based inhibition of transiently expressed FGFR1 IIIc phosphorylation via use of ECHO technology (Cos-1 cells)
T1 construct: host or cells: Cos-1

[3] = target: T2, human IGF1R (Homo sapiens, UniProt P08069); assay: Inhibition of insulin-like growth factor-1 receptor phosphorylation in R+ cells; format: cell-based; settings: 30 nM IGF1, read-out: IGF cell class
T2 construct: expressed in transfected cells; host or cells: R+ cells (R- mouse fibroblasts transfected with human IGF1R)

[4] = target: T3, FGFR kinase domain (Homo sapiens, UniProt P11362, C488A/C584S); assay: Kinase assay (ELISA) for inhibition of FGFR activity; format: biochemical
T3 construct: FGFR kinase domain (amino acids 458-765, C488A, C584S) N-terminally fused to a His6-tag; made in house
Method: To determine inhibition of FGFR activity, kinase assays were conducted using ELISA (Enzyme-Linked Immunosorbent Assay) technology.
Kinase activity assays were performed in 384-well polypropylene plates (Matrix, 4311) with a total volume of 40 μl in each well. Each well was coated with 2 μg of polyEAY substrate (Sigma, P3899) at 4° C. overnight. The plates were then washed once with 100 μl PBS and once with 100 μl 50 mM HEPES (pH 7.4) prior to the addition of the kinase assay reagents. […] Various concentrations of test compounds were each added in 5% (v/v) DMSO to yield a final assay DMSO concentration of 1.25% (v/v). The kinase reactions were incubated at room temperature for 45 minutes and stopped by washing the plate three times with 100 μl PBS plus 0.05% Tween. […] Following this, the plates were then washed repeatedly with 100 μl PBS plus 0.05% Tween to remove all traces of the antibody solution. 40 μl of 50 μg/ml 3,3′,5,5′-Tetramethylbenzidine (Sigma, T2885), 0.05M phosphate-citrate buffer, containing 0.03% sodium perborate was added to each well and the plates incubated at room temperature for twelve minutes. The colour reaction was stopped by the addition of 20 μl 2M H2SO4 and the plates read at 450 nm on a Spectrafluor Plus (Tecan).

[5] = target: T1, FGFR1 IIIc; assay: Cell based inhibition of transiently expressed FGFR1 IIIc phosphorylation (Cos-1 cells); settings: Cos-1 cells, phospho-FGFR1; upper bound of bin; read-out: IC50
[6] = target: FGFR1 kinase (Homo sapiens, UniProt P11362); assay: Kinase assay (using Caliper technology); format: biochemical; settings: FGFR1 kinase, Caliper; upper bound of bin; read-out: IC50
Procedure, shortened: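 Human FGFR1 kinase activity measured with a 13-mer fluorescently tagged FGFR1-specific peptide substrate; compounds serially diluted in 5% (v/v) DMSO. Reactions ran 1.5 h at room temperature, stopped with EDTA-containing HEPES pH 7.5 buffer. Phosphorylated and unphosphorylated peptide separated by microfluidic mobility shift.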

[7] = Cos-1 cells, phospho-FGFR1, ECHO dosing, upper bound of bin, read-out: IC50
[8] = FGFR inhibition tests, ELISA kinase assay, read-out: Activity class

T3 sequence (P11362 458-765 C488A/C584S): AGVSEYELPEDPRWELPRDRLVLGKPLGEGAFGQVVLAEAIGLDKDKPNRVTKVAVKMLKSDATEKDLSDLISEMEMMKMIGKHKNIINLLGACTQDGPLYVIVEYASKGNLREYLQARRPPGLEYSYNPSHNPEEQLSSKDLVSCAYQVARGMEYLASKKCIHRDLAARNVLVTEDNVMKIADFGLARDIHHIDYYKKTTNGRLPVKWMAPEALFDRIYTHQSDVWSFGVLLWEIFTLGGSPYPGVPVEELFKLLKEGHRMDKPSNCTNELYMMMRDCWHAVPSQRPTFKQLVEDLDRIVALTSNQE
T2 sequence (P08069 31-1367): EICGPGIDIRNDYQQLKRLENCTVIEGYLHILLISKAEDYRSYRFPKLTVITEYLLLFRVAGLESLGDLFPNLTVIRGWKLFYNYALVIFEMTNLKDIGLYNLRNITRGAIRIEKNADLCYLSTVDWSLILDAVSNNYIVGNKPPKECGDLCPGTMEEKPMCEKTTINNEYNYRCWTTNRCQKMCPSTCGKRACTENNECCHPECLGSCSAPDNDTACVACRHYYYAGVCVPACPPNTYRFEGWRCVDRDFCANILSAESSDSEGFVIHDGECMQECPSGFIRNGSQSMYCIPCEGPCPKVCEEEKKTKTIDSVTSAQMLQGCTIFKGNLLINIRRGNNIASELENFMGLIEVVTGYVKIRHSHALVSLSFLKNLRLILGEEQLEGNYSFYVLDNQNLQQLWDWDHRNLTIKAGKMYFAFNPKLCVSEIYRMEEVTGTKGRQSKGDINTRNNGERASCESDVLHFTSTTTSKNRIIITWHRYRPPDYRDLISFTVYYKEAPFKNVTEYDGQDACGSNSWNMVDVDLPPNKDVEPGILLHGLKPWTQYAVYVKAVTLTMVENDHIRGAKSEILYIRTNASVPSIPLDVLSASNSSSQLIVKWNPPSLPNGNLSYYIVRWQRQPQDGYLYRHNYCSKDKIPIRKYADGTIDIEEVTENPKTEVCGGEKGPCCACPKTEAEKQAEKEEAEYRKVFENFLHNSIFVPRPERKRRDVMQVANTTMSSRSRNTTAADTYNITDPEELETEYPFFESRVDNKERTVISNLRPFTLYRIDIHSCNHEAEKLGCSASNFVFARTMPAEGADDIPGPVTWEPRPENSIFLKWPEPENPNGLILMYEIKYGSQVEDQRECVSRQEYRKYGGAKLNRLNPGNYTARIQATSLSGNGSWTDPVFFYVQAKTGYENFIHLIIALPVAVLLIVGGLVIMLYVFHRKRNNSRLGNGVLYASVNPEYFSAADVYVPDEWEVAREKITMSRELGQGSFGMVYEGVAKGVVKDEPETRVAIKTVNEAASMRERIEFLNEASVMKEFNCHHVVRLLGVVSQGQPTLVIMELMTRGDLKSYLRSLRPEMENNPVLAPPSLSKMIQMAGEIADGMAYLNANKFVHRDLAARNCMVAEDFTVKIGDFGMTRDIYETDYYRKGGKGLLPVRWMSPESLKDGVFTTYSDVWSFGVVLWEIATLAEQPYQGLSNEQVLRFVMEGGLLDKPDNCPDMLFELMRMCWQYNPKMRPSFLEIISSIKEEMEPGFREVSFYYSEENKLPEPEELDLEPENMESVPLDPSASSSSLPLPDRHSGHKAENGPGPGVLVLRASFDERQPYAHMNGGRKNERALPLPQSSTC
Sequence of FGFR1 kinase (P11362 22-822): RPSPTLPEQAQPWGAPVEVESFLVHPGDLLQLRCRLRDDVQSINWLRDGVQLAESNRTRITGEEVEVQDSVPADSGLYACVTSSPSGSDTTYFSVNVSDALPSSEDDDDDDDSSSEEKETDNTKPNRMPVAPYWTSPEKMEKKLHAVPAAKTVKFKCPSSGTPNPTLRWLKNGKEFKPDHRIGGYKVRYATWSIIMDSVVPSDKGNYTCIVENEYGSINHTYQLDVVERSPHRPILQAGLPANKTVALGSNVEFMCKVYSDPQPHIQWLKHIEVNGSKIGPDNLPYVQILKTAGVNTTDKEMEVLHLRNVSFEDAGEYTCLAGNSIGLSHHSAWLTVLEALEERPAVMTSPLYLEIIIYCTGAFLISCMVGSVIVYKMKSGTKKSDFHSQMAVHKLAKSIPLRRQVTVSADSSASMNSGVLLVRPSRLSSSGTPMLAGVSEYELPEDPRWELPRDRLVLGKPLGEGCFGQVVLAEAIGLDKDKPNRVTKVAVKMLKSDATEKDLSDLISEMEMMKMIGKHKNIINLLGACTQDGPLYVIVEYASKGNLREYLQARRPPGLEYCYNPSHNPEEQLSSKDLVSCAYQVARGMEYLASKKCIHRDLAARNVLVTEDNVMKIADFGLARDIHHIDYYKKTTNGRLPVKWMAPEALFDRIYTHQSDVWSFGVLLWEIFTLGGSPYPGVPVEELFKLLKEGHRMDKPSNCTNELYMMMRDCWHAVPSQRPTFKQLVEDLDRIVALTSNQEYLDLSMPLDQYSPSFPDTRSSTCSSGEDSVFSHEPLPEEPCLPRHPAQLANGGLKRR
T1 sequence (P11362 22-822): as above

Row | SMILES | IC50 [2, 7] [nM] | IC50 [3] [nM] | IC50 [4, 8] [nM] | IC50 [6] [nM] | other results
1 | Cc1cc(Nc2ccnc(NCc3cc(C4CC4)no3)n2)n[nH]1 [Example 3, N-[(3-cyclopropylisoxazol-5-yl)methyl]-N ′-(5-methyl-2H-pyrazol-3-yl)pyrimidine-2,4-diamine] | < 1000 | 1000 to 10000 | < 100 | – | IC50 [1]: < 200 nM; IC50 [5]: < 1000 nM
2 | Cc1cc(Nc2ccnc(NCc3cc(C(N)=O)no3)n2)[nH]n1 [Example 4, 5-[[[4-[(5-methyl-2H-pyrazol-3-yl)amino]pyrimidin-2-yl]amino]methyl]isoxazole-3-carboxamide] | – | > 10000 | – | – | IC50 [2]: < 10000 nM; IC50 ([4]; Activity class): 100 to 1000 nM
3 | CCCc1cc(Nc2ccnc(NCc3cc(C)no3)n2)n[nH]1 [Example 6, N-[(3-methylisoxazol-5-yl)methyl]-N ′-(5-propyl-2H-pyrazol-3-yl)pyrimidine-2,4-diamine] | < 200 | 100 to 1000 | < 100 | – | –
4 | CCCc1cc(Nc2ccnc(NCc3cc(C4CC4)no3)n2)n[nH]1 [Example 7, N-[(3-cyclopropyl-1,2-oxazol-5-yl)methyl]-N′-(5-propyl-2H-pyrazol-3-yl)pyrimidine-2,4-diamine] | < 200 | – | < 100 | – | –
5 | CCCc1cc(Nc2ccnc(NCc3cc(C(N)=O)no3)n2)n[nH]1 [Example 8, 5-[[[4-[(5-propyl-1H-pyrazol-3-yl)amino]pyrimidin-2-yl]amino]methyl]-1,2-oxazole-3-carboxamide] | < 1000 | – | < 100 | – | –
6 | c1cc(Nc2cc(C3CC3)[nH]n2)nc(NCc2cc(C3CC3)no2)n1 [Example 10, N-[(3-cyclopropyl-1,2-oxazol-5-yl)methyl]-N′-(5-cyclopropyl-2H-pyrazol-3-yl)pyrimidine-2,4-diamine] | < 200 | 100 to 1000 | < 100 | – | –
7 | NC(=O)c1cc(CNc2nccc(Nc3cc(C4CC4)n[nH]3)n2)on1 [Example 11, 5-[[[4-[(5-cyclopropyl-2H-pyrazol-3-yl)amino]pyrimidin-2-yl]amino]methyl]-1,2-oxazole-3-carboxamide] | < 1000 | 1000 to 10000 | < 100 | – | –
8 | CCOCCCc1cc(Nc2ccnc(NCc3cc(C)no3)n2)n[nH]1 [Example 20, N′-[5-(3-ethoxypropyl)-2H-pyrazol-3-yl]-N-[(3-methyl-1,2-oxazol-5-yl)methyl]pyrimidine-2,4-diamine] | < 10000 | – | 100 to 1000 | – | –
9 | CCOCCCc1cc(Nc2ccnc(NCc3cc(C4CC4)no3)n2)[nH]n1 [Example 21, N-[(3-cyclopropyl-1,2-oxazol-5-yl)methyl]-N′-[5-(3-ethoxypropyl)-2H-pyrazol-3-yl]pyrimidine-2,4-diamine] | < 1000 | – | < 100 | – | –
10 | CCOCCCc1cc(Nc2ccnc(NCc3cc(C(N)=O)no3)n2)[nH]n1 [Example 22, 5-[[[4-[[5-(3-ethoxypropyl)-2H-pyrazol-3-yl]amino]pyrimidin-2-yl]amino]methyl]-1,2-oxazole-3-carboxamide] | < 30000 | – | 100 to 1000 | – | –
11 | COc1ccc(CCc2cc(Nc3ccnc(NCc4cc(C)no4)n3)n[nH]2)cc1 [Example 24, N′-[5-[2-(4-methoxyphenyl)ethyl]-2H-pyrazol-3-yl]-N-[(3-methyl-1,2-oxazol-5-yl)methyl]pyrimidine-2,4-diamine] | – | > 10000 | 100 to 1000 | < 1000 | IC50 [5]: < 1000 nM
12 | COc1ccc(CCc2cc(Nc3ccnc(NCc4cc(C5CC5)no4)n3)n[nH]2)cc1 [Example 25, N-[(3-cyclopropyl-1,2-oxazol-5-yl)methyl]-N′-[5-[2-(4-methoxyphenyl)ethyl]-2H-pyrazol-3-yl]pyrimidine-2,4-diamine] | < 200 | – | 100 to 1000 | < 1000 | –
13 | COc1ccc(CCc2cc(Nc3ccnc(NCc4cc(C(N)=O)no4)n3)[nH]n2)cc1 [Example 26, 5-[[[4-[[5-[2-(4-methoxyphenyl)ethyl]-2H-pyrazol-3-yl]amino]pyrimidin-2-yl]amino]methyl]-1,2-oxazole-3-carboxamide] | < 10000 | – | 100 to 1000 | < 1000 | –
14 | COc1cccc(CCc2cc(Nc3ccnc(NCc4cc(C)no4)n3)n[nH]2)c1 [Example 27, N′-[5-[2-(3-methoxyphenyl)ethyl]-2H-pyrazol-3-yl]-N-[(3-methyl-1,2-oxazol-5-yl)methyl]pyrimidine-2,4-diamine] | – | > 10000 | < 100 | < 200 | IC50 [5]: < 200 nM
15 | COc1cccc(CCc2cc(Nc3ccnc(NCc4cc(C5CC5)no4)n3)n[nH]2)c1 [Example 28, N-[(3-cyclopropyl-1,2-oxazol-5-yl)methyl]-N′-[5-[2-(3-methoxyphenyl)ethyl]-2H-pyrazol-3-yl]pyrimidine-2,4-diamine] | < 200 | – | 100 to 1000 | < 200 | IC50 [5]: < 200 nM
16 | COc1cccc(CCc2cc(Nc3ccnc(NCc4cc(C(N)=O)no4)n3)[nH]n2)c1 [Example 29, 5-[[[4-[[5-[2-(3-methoxyphenyl)ethyl]-2H-pyrazol-3-yl]amino]pyrimidin-2-yl]amino]methyl]-1,2-oxazole-3-carboxamide] | – | > 10000 | < 100 | < 200 | IC50 [5]: < 10000 nM
17 | COc1cccc(CCc2cc(Nc3ccnc(NCc4cc(-c5ncccn5)no4)n3)[nH]n2)c1 [Example 33, N′-[5-[2-(3-methoxyphenyl)ethyl]-2H-pyrazol-3-yl]-N-[(3-pyrimidin-2-yl1,2-oxazol-5-yl)methyl]pyrimidine-2,4-diamine] | – | > 10000 | – | < 200 | IC50 [1]: 518 nM; IC50 ([1]; upper bound of bin): < 1000 nM; IC50 ([4]; stated after the ELISA results table, read-out: IC50): 92 nM
18 | Cc1cc(CNc2nccc(Nc3cc(OC(C)C)[nH]n3)n2)on1 [Example 66, N-[(3-methyl-1,2-oxazol-5-yl)methyl]-N′-(5-propan-2-yloxy-2H-pyrazol-3-yl)pyrimidine-2,4-diamine] | < 1000 | > 10000 | < 100 | < 200 | IC50 [1]: < 200 nM; IC50 [5]: < 1000 nM
19 | CC(C)Oc1cc(Nc2ccnc(NCc3cc(C4CC4)no3)n2)n[nH]1 [Example 67, N-[(3-cyclopropyl-1,2-oxazol-5-yl)methyl]-N′-(5-propan-2-yloxy-2H-pyrazol-3-yl)pyrimidine-2,4-diamine] | < 200 | 1000 to 10000 | < 100 | < 200 | IC50 [1]: < 200 nM; IC50 [5]: < 200 nM
20 | Cc1cc(CNc2nc(C)cc(Nc3cc(OC(C)C)[nH]n3)n2)on1 [Example 68, 6-methyl-N-[(3-methyl-1,2-oxazol-5-yl)methyl]-N′-(5-propan-2-yloxy-1H-pyrazol-3-yl)pyrimidine-2,4-diamine] | < 200 | > 10000 | < 100 | < 200 | –
21 | Cc1cc(Nc2cc(OC(C)C)[nH]n2)nc(NCc2cc(C3CC3)no2)n1 [Example 69, N-[(3-cyclopropyl-1,2-oxazol-5-yl)methyl]-6-methyl-N′-(5-propan-2-yloxy-2H-pyrazol-3-yl)pyrimidine-2,4-diamine] | < 200 | – | < 100 | < 200 | –
22 | COc1cc(Nc2cc(OC(C)C)n[nH]2)nc(NCc2cc(C)no2)n1 [Example 70, 6-methoxy-N-[(3-methyl-1,2-oxazol-5-yl)methyl]-N′-(5-propan-2-yloxy-2H-pyrazol-3-yl)pyrimidine-2,4-diamine] | < 200 | > 10000 | < 100 | < 200 | –
23 | COc1cc(Nc2cc(OC(C)C)[nH]n2)nc(NCc2cc(C3CC3)no2)n1 [Example 71, N-[(3-cyclopropyl-1,2-oxazol-5-yl)methyl]-6-methoxy-N′-(5-propan-2-yloxy-2H-pyrazol-3-yl)pyrimidine-2,4-diamine] | < 200 | – | < 100 | < 200 | –
24 | Cc1cc(CNc2nccc(Nc3cc(OCc4ccccc4)[nH]n3)n2)on1 [Example 72, N-[(3-methyl-1,2-oxazol-5-yl)methyl]-N′-(5-phenylmethoxy-1H-pyrazol-3-yl)pyrimidine-2,4-diamine] | – | – | 100 to 1000 | – | IC50 ([1]; upper bound of bin): < 1000 nM
